# According to PubChem BioAssay AID602191 (Broad Institute, 2012):
# The source made the active and inactive calls.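 How the source made its calls: active means fitted curve reaches 40% activation at a concentration no higher than the top valid tested dose; inconclusive means flat fit between 30% and 70% activation, or poor fit; inactive means uptake decrease, flat fit within 30% of zero, the rest.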
# Biological target: Scavenger receptor class B member 1 (Mus musculus) (UniProt Q61009)
# Experiment: activators of SR-BI-mediated HDL uptake, dose response, cell-based, ldlA[mSR-BI] CHO, DiI fluorescence, cherry-pick (AID 602191);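 further: cell fluorescence from internalized DiI-labeled HDL after washing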;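 on AC40: potency of activators raising HDL uptake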;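 on activation (HDL uptake increase): 0% = median of DMSO wells and 100% = twice the DMSO signal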
# Settings: ldlA[mSR-BI] CHO cells, 3 h
# Chain of Scavenger receptor class B member 1 (Mus musculus) (Q61009 whole entry, looked up): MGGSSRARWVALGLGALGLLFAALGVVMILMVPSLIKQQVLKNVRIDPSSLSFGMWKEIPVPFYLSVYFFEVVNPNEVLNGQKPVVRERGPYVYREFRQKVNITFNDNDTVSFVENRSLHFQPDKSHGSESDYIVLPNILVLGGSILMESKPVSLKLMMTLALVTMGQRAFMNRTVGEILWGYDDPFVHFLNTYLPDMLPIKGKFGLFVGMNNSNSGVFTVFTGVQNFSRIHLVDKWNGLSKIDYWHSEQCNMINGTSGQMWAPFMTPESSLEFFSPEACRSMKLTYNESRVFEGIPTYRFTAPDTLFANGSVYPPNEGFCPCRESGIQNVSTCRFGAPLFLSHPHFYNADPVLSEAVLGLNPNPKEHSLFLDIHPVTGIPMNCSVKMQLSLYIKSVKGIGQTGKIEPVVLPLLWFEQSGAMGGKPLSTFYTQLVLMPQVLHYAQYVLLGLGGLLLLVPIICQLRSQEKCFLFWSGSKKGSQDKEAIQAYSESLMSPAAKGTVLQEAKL
row,AC40,SMILES
1,> 35 µM (inactive),COc1ccc(OC)c(S(=O)(=O)NCCCN2CCCC2=O)c1
2,35 µM,Cc1ccc(S(=O)(=O)Nc2ccc3c(c2)C(=O)N([C@H](C)CO)C[C@H](C)[C@@H](CN(C)Cc2ccc(-c4ccccc4)cc2)O3)cc1
3,> 35 µM (inactive),CCOC(=O)C(NC(=O)CC(C)C)(Nc1sc2c(c1C(N)=O)CCCC2)C(F)(F)F (centres undefined)
4,> 35 µM (inactive),CCn1c(C(=O)O)c(CC(=O)NC2CCCCCC2)c2ccccc21

# Same assay, conditions: ldlA[mSR-BI] CHO cells, 3 h, at 35 µM (top of the series)
row,activation (HDL uptake increase),SMILES
1,-9.83% (inactive),CCOc1ccc(S(=O)(=O)N2CCN=C2c2ccccc2)c(C)c1C
2,-11.9% (inactive),O=C(CC1C(=O)NCCN1Cc1ccc(Cl)c(F)c1)NC1CCCCC1 (centres undefined)
3,16.6% (inactive),CCCCC(=O)OCC(=O)C1(O)Cc2c(O)c3c(c(O)c2C(OC2CC(NC(=O)C(F)(F)F)C(O)C(C)O2)C1)C(=O)c1c(OC)cccc1C3=O (centres undefined)
4,-0.437% (inactive),O=C1C2C3C=CC(C4CC34)C2C(=O)N1c1nccs1 (centres undefined)
5,-12% (inactive),O=S(=O)(c1ccccc1)N1CCN(Cc2c(O)ccc3ccccc23)CC1
6,-5.94% (inactive),CCN(CC(=O)Nc1c(F)cccc1F)C(=O)CCCc1nc2ccccc2c(=O)[nH]1
7,11.2% (inactive),O=C1NC[C@H](Cc2ccccc2)N(C[C@H]2CCCN2C[C@H](Cc2ccccc2)N2C[C@H](Cc3ccccc3)N(CC3CCCCC3)C(=O)C2=O)C1=O
8,-16.3% (inactive),COc1ccc(NC(=O)C(Sc2nnc3ccccn23)c2ccccc2)cc1Cl (centres undefined)
9,-9.94% (inactive),Cc1ccccc1-n1nc2c(c1NC(=O)c1ccco1)CS(=O)(=O)C2
10,-7.43% (inactive),CN1CCN(C(=O)C2=C[C@@H](c3coc4ccccc4c3=O)C[C@@H](OCCCCO)O2)CC1
11,-7.04% (inactive),Cc1ccc(NC(=O)CSc2nc3nc(C)c(Br)cc3[nH]2)cc1F
12,-19.6% (inactive),COc1ccc(Cn2c(N)c(S(=O)(=O)c3cccs3)c3nc4ccccc4nc32)cc1
13,-4.62% (inactive),Cc1nc(CCNC(=O)Cc2ccc(Cl)cc2)cs1
14,6.34% (inactive),NCCCC[C@H]1CNC(=O)C(=O)N1CCc1cc(C(F)(F)F)cc(C(F)(F)F)c1
15,0.848% (inactive),O=C(C1=C[C@@H](c2ccc(Br)cc2)C[C@@H](OCc2ccc(CO)cc2)O1)N1CCN(Cc2ccccc2)CC1
16,-24.2% (inactive),Cc1ccc(OCC(=O)N(C)CC(=O)NCc2ccco2)c(Br)c1
17,-31.7% (inactive),CNC[C@H](CC1CCCCC1)NC[C@H](Cc1ccccc1)NCCC12CC3CC(CC(C3)C1)C2
18,-6.57% (inactive),Cc1ccc(S(=O)(=O)CCC(=O)OCC(=O)Nc2cc(S(=O)(=O)N3CCOCC3)ccc2Cl)cc1
19,-0.486% (inactive),Cc1cccc(NC(=O)CN2CCN(C(=O)C3CCCO3)CC2)c1C (centres undefined)
20,7.43% (inactive),COc1ccccc1N(C(=O)c1snc(C(N)=O)c1N)C(C(=O)NCCC(C)C)c1ccco1 (centres undefined)
21,12% (inactive),N#CCCN1CCN(S(=O)(=O)c2ccc(C3CCCCC3)cc2)CC1
22,5.66% (inactive),COc1ccc(CCNC(=S)N2CCN(S(=O)(=O)c3ccc(Cl)cc3)CC2)cc1
23,-1.39% (inactive),Cc1noc(/C=C/N(C)C)c1S(=O)(=O)N1CCCC(C(=O)NCc2ccco2)C1 (centres undefined)
24,-4.31% (inactive),COc1ccccc1N1CCN(C2CCCN(C(=O)c3ccccn3)C2)CC1 (centres undefined)
25,6.23% (inactive),O=C1[C@H]2[C@@H](c3ccc(F)cc3)N3C(=O)N(c4ccc(Br)cc4)C(=O)[C@@]3(Cc3ccccc3)[C@H]2C(=O)N1C1CCCCC1

row,activation (HDL uptake increase),SMILES
1,-6.78% (inactive),O=C(NCc1cnn(-c2ccccc2)c1)C1CCC(=O)N(C2CC2)C1 (centres undefined)
2,-14.4% (inactive),O=C(NCC(=O)N1CCN(c2ccccc2)CC1)c1ccc(Br)o1
3,-5.58% (inactive),CN(C(=O)COC(=O)CN1C(=O)c2cccc([N+](=O)[O-])c2C1=O)c1ccccc1
4,7.27% (inactive),COC(=O)C1(C)NC(c2ccccc2OC)C2C(=O)N(c3ccccc3)C(=O)C21 (centres undefined)
5,-6.45% (inactive),CCC(=O)Nc1ccc(C(=O)NNC(=O)c2cccs2)cc1
6,-6.65% (inactive),COc1ccc(N(CC(=O)NCc2ccccc2)S(=O)(=O)c2c(C)nn(C)c2C)cc1
7,-15.7% (inactive),O=C(CSc1nnc(Cc2cccs2)n1-c1ccccc1)NC1CCCCC1
8,-6.75% (inactive),Cc1cccn2c(CN[C@@H]3CCCC[C@H]3c3ccccc3)c(C(=O)N3CCOCC3)nc12
9,1.11% (inactive),COc1ccccc1N(CC(=O)Nc1cc(C)on1)S(=O)(=O)c1cccc(C(F)(F)F)c1
10,15.1% (inactive),COc1ccc2c(CC(=O)NCC3CCC(C(=O)O)CC3)cc(=O)oc2c1 (centres undefined)
11,-7.7% (inactive),C[C@H](CO)N1C[C@H](C)[C@H](CN(C)C)Oc2ccc(NS(=O)(=O)c3ccc(F)cc3)cc2CC1=O
12,-12.3% (inactive),O=C(c1ccco1)N1CCN(C(=S)Nc2ccc(F)c(Cl)c2)CC1
13,6.35% (inactive),O=C(C[C@H]1C/C=C\C[C@@H](Cc2ccc(F)cc2)C(=O)OC[C@H]2CCCN2C1=O)N[C@H](CO)Cc1ccccc1
14,-10.3% (inactive),C=CCOC(=O)C1=C[C@H](c2ccc(C(F)(F)F)cc2)C[C@H](OCCCCO)O1
15,65.3% (inactive),C=CC[C@@H](CC(=O)N[C@@H](CO)Cc1ccccc1)C(=O)N[C@H](COC(=O)[C@@H](CC=C)CC(=O)OC(C)(C)C)Cc1c[nH]c2ccccc12
16,-4.87% (inactive),CCC(C)(C)NC(=O)C(c1cccnc1)N(CCOC)C(=O)Cn1nnc2ccccc21 (centres undefined)
17,-1.21% (inactive),CC(Sc1ccc(S(=O)(=O)N(C)C)cn1)C(=O)NC1CCCC1 (centres undefined)
18,-8.15% (inactive),CCS(=O)(=O)c1nc(S(=O)(=O)c2ccc(C)cc2)c(N2CCC(C)CC2)s1
19,-2.75% (inactive),CC(C)(C)OC(=O)C[C@H]1C/C=C\C[C@H](CC(=O)NCCO)C(=O)NCCOC1=O
20,4.83% (inactive),COc1ccc(N(C(=O)CNC(=O)c2ccco2)C(C(=O)NC2CCCCC2)c2ccncc2)cc1 (centres undefined)
21,2.16% (inactive),CCOc1ccc(S(=O)(=O)NCCc2cn3ccccc3n2)cc1
22,-8.43% (inactive),Cc1cc(C)nc(SCC(=O)OC(C)C(=O)Nc2ccccc2)n1 (centres undefined)
23,-4.98% (inactive),CC(=O)c1cccc(S(=O)(=O)NCCCN2CCOCC2)c1
24,-1.92% (inactive),Nc1nonc1-n1nnc(C(=O)N/N=C/c2cccs2)c1CSc1ccccc1
25,-0.755% (inactive),Cc1c(/C(O)=C2/C(=O)C(=O)N(CCN3CCOCC3)C2c2cccnc2)cnn1-c1ccccc1 (centres undefined)

row,activation (HDL uptake increase),SMILES
1,-5.09% (inactive),Cn1c(=O)oc2cc(S(=O)(=O)NCCN3CCN(c4ccccc4)CC3)ccc21
2,-13.6% (inactive),O=C(OCCc1cc2ccccc2c(=O)o1)c1ccc(F)cc1
3,-7.41% (inactive),COC1CCCN(Cc2c(C(=O)N3CCN(C4CCCCC4)CC3)nc3ccccn23)C1 (centres undefined)
4,-1.19% (inactive),Cc1cc(S(=O)(=O)NCCc2ccccc2)c(C)s1
5,4.87% (inactive),COC(=O)Cc1c(C)c2ccc(OCc3nn[nH]n3)cc2oc1=O
6,7.83% (inactive),O=C1CCN(S(=O)(=O)c2ccccc2)CCN1CCOCc1cccc(F)c1
7,8.29% (inactive),CC1(C)CC(=O)C2=C(C1)N(CC1CCCO1)C(=O)C2(O)C(F)(F)F (centres undefined)
8,-6.7% (inactive),CCC1C(=O)NCCN1C(=O)c1ccc(OC)c(OC2CCN(C(C)=O)CC2)c1 (centres undefined)
9,-17.5% (inactive),O=C(Nc1ccc(S(=O)(=O)Nc2ccccc2F)cc1)N1CCCCC1
10,1.49% (inactive),CC(C)C[C@@H](CN1CCCC1CN1C(=S)NC[C@@H]1Cc1ccc(O)cc1)N1C[C@H](Cc2ccc(O)cc2)N(CC2CCCCCC2)C1=S (some centres undefined)
11,-1.53% (inactive),O=C(NC1CCCCCC1)C1c2ccccc2C(=O)N1CCCN1CCOCC1 (centres undefined)
12,1.77% (inactive),CCN1C[C@@H]2[C@@H]3C(=O)N(Cc4ccccc4)C(=O)[C@@H]3[C@](C)(C1=O)N2C(=O)c1ccc(Br)cc1
13,-5.97% (inactive),O=C(CNC(=O)c1ccco1)NCCCc1ccccc1
14,1.48% (inactive),CC(C)c1ccc(OCC(=O)NCCO)cc1
15,-2.45% (inactive),Cc1cc(N2C(=O)C3C4C=CC(C4)C3C2=O)no1 (centres undefined)
16,-2.45% (inactive),COC(=O)C(Cc1ccc(O)cc1)NC(=O)C1CCN(S(=O)(=O)c2ccc(C)cc2)CC1 (centres undefined)
17,-7.49% (inactive),COCCN(Cc1nnc(-c2cccs2)o1)C(=O)c1cccc(S(=O)(=O)N2CCOCC2)c1
18,-4.62% (inactive),COC(=O)CNC(=O)C12CC3CC(C1)CC(c1ccc(C)cc1)(C3)C2
19,-9.53% (inactive),O=C(O)CCn1cc(/C=C/C(=O)c2ccc(Cl)cc2)c(-c2ccc(Br)cc2)n1
20,-22.7% (inactive),CCc1nnc(NC(=O)c2nc(S(=O)(=O)Cc3ccc(C)cc3)ncc2Cl)s1
21,-7.63% (inactive),Cc1ccc(S(=O)(=O)N2CCOCC2)cc1C(=O)NCc1ccccc1CN1CCCC1
22,-7.31% (inactive),Cc1ccc(C2/C(=C(\O)c3ccc4c(c3)OCCO4)C(=O)C(=O)N2Cc2cccnc2)cc1 (centres undefined)
23,-0.519% (inactive),COc1ccccc1CNC(=O)COC(=O)CSc1ccc(C)c(C)c1
24,-0.695% (inactive),Cc1c(C)c2ccc(OCC(=O)NC(Cc3c[nH]c4ccc(O)cc34)C(=O)O)c(C)c2oc1=O (centres undefined)
25,-2.31% (inactive),CCc1ccc2[nH]c(=O)c(CN(CCN(C)C)C(=O)Nc3ccccc3OC)cc2c1
